Test results as given in patent US8258134B2, “Pyridazinone glucokinase activators” (Hoffmann-La Roche Inc., priority 2008, dated 2012).

Molecular target: T1, Recombinant human liver GK1 (GST-GK) (Homo sapiens, UniProt P35557)
T1 construct: made in house; host or cells: E. coli
T1 sequence (P35557 1-466 isoform P35557-2): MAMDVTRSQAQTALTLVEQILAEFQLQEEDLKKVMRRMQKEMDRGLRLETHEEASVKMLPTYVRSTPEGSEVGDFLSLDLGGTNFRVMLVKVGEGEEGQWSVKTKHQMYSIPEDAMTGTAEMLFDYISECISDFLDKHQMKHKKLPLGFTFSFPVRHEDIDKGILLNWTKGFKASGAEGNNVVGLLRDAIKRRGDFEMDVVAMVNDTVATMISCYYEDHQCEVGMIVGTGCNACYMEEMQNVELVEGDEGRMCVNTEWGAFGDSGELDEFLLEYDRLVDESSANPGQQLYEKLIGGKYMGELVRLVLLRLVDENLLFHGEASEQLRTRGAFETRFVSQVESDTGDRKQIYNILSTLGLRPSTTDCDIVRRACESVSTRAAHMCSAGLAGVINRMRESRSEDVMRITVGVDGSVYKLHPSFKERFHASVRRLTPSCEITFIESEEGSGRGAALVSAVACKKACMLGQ
Test: Glucokinase in vitro assay (G6PDH-coupled NADH generation, OD340)
Assay type: biochemical
Settings: 5 mM D-glucose, 30° C., pH 7.1, 10% DMSO
Procedure, shortened: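 Activation readout is SC1.5, the activator concentration raising GK rate (OD340/min) 50% above 10% DMSO controls. The coupled reaction used GST-GK1 from E. coli, 5 mM glucose, 1 mM ATP, 1.8 mM NAD and 25 mM Hepes pH 7.1 at 30° C. Enzyme was added after a 10 min compound pre-incubation.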

SC1.5 average (concentration of activator that produced a 50% increase in the activity of GK) | Structure (SMILES)
12.633 µM | O=C(Nc1ccn(C[C@@H](O)CO)n1)C(CC1CCCC1)n1ncc(Oc2ncccc2F)cc1=O (stereo partly drawn) [Example 95, 3-Cyclopentyl-N-[1-((R)-2,3-dihydroxy-propyl)-1H-pyrazol-3-yl]-2-[4-(3-fluoro-pyridin-2-yloxy)-6-oxo-6H-pyridazin-1-yl]-propionamide]
0.067 µM | O=C(Nc1ccn(C[C@@H](O)CO)n1)C(CC1CCCC1)n1ncc(Oc2cccc3[nH]ccc23)cc1=O (stereo partly drawn) [Example 96, 3-Cyclopentyl-N-[1-((R)-2,3-dihydroxy-propyl)-1H-pyrazol-3-yl]-2-[4-(1H-indol-4-yloxy)-6-oxo-6H-pyridazin-1-yl]-propionamide]
1.895 µM | Cc1occc(=O)c1Oc1cnn(C(CC2CCCC2)C(=O)Nc2ccn(C[C@@H](O)CO)n2)c(=O)c1 (stereo partly drawn) [Example 97, 3-Cyclopentyl-N-[1-((R)-2,3-dihydroxy-propyl)-1H-pyrazol-3-yl]-2-[4-(2-methyl-4-oxo-4H-pyran-3-yloxy)-6-oxo-6H-pyridazin-1-yl]-propionamide]
1.277 µM | Cc1cccc(Oc2cnn(C(CC3CCCC3)C(=O)Nc3ccn(C[C@@H](O)CO)n3)c(=O)c2)n1 (stereo partly drawn) [Example 99, 3-Cyclopentyl-N-[1-((R)-2,3-dihydroxy-propyl)-1H-pyrazol-3-yl]-2-[4-(6-methyl-pyridin-2-yloxy)-6-oxo-6H-pyridazin-1-yl]-propionamide]
0.101 µM | Cc1ccc(F)c(Oc2cnn(C(CC3CCCC3)C(=O)Nc3ccn(C[C@@H](O)CO)n3)c(=O)c2)c1 (stereo partly drawn) [Example 100, 3-Cyclopentyl-N-[1-((R)-2,3-dihydroxy-propyl)-1H-pyrazol-3-yl]-2-[4-(2-fluoro-5-methyl-phenoxy)-6-oxo-6H-pyridazin-1-yl]-propionamide]
0.732 µM | O=C(Nc1ccn(C[C@@H](O)CO)n1)C(CC1CCCC1)n1ncc(Oc2ccccc2CCO)cc1=O (stereo partly drawn) [Example 101, 3-Cyclopentyl-N-[1-((R)-2,3-dihydroxy-propyl)-1H-pyrazol-3-yl]-2-{4-[2-(2-hydroxy-ethyl)-phenoxy]-6-oxo-6H-pyridazin-1-yl}-propionamide]
0.56 µM | Cc1cc(C)nc(Oc2cnn(C(CC3CCCC3)C(=O)Nc3ccn(C[C@@H](O)CO)n3)c(=O)c2)n1 (stereo partly drawn) [Example 102, 3-Cyclopentyl-N-[1-((R)-2,3-dihydroxy-propyl)-1H-pyrazol-3-yl]-2-[4-(4,6-dimethyl-pyrimidin-2-yloxy)-6-oxo-6H-pyridazin-1-yl]-propionamide]
0.139 µM | O=C(Nc1ccn(C[C@@H](O)CO)n1)C(CC1CCCC1)n1ncc(Oc2cccc(Cl)c2F)cc1=O (stereo partly drawn) [Example 104, 2-[4-(3-Chloro-2-fluoro-phenoxy)-6-oxo-6H-pyridazin-1-yl]-3-cyclopentyl-N-[1-((R)-2,3-dihydroxy-propyl)-1H-pyrazol-3-yl]-propionamide]
0.072 µM | O=C(Nc1ccn(C[C@@H](O)CO)n1)C(CC1CCCC1)n1ncc(Oc2c(F)cccc2F)cc1=O (stereo partly drawn) [Example 105, 3-Cyclopentyl-2-[4-(2,6-difluoro-phenoxy)-6-oxo-6H-pyridazin-1-yl]-N-[1-((R)-2,3-dihydroxy-propyl)-1H-pyrazol-3-yl]-propionamide]
0.042 µM | Cc1ccc(F)c(Oc2cnn(C(CC3CCCC3)C(=O)Nc3ccn(C[C@@H](O)CO)n3)c(=O)c2)c1F (stereo partly drawn) [Example 107, 3-Cyclopentyl-2-[4-(2,6-difluoro-3-methyl-phenoxy)-6-oxo-6H-pyridazin-1-yl]-N-[1-((R)-2,3-dihydroxy-propyl)-1H-pyrazol-3-yl]-propionamide]
1.656 µM | O=C(Nc1ccn(C[C@@H](O)CO)n1)C(CC1CCCC1)n1ncc(OCCc2ccccc2Cl)cc1=O (stereo partly drawn) [Example 114, 2-{4-[2-(2-Chloro-phenyl)-ethoxy]-6-oxo-6H-pyridazin-1-yl}-3-cyclopentyl-N-[1-((R)-2,3-dihydroxy-propyl)-1H-pyrazol-3-yl]-propionamide]
0.376 µM | O=C(Nc1ccn(C[C@@H](O)CO)n1)C(CC1CCCC1)n1ncc(Oc2nccc(C(F)(F)F)n2)cc1=O (stereo partly drawn) [Example 115, 3-Cyclopentyl-N-[1-((R)-2,3-dihydroxy-propyl)-1H-pyrazol-3-yl]-2-[6-oxo-4-(4-trifluoromethyl-pyrimidin-2-yloxy)-6H-pyridazin-1-yl]-propionamide]

Further lines, the compound ahead of its results:

Structure (SMILES) | SC1.5 average (concentration of activator that produced a 50% increase in the activity of GK)
O=C(Nc1ccn(C[C@@H](O)CO)n1)C(CC1CCCC1)n1ncc(Oc2ccccc2OC(F)(F)F)cc1=O (stereo partly drawn) [Example 98, 3-Cyclopentyl-N-[1-((R)-2,3-dihydroxy-propyl)-1H-pyrazol-3-yl]-2-[6-oxo-4-(2-trifluoromethoxy-phenoxy)-6H-pyridazin-1-yl]-propionamide] | 0.244 µM
Cn1nc(C(F)(F)F)cc1Oc1cnn(C(CC2CCCC2)C(=O)Nc2ccn(C[C@@H](O)CO)n2)c(=O)c1 (stereo partly drawn) [Example 103, 3-Cyclopentyl-N-[1-((R)-2,3-dihydroxy-propyl)-1H-pyrazol-3-yl]-2-[4-(2-methyl-5-trifluoromethyl-2H-pyrazol-3-yloxy)-6-oxo-6H-pyridazin-1-yl]-propionamide] | 2.591 µM
O=C(Nc1ccn(C[C@@H](O)CO)n1)C(Cc1c(F)cccc1F)n1ncc(Oc2c(F)cccc2F)cc1=O (stereo partly drawn) [Example 108, 2-[4-(2,6-Difluoro-phenoxy)-6-oxo-6H-pyridazin-1-yl]-3-(2,6-difluoro-phenyl)-N-[1-((R)-2,3-dihydroxy-propyl)-1H-pyrazol-3-yl]-propionamide] | 0.521 µM
CC(C)CC(C(=O)Nc1ccn(C[C@@H](O)CO)n1)n1ncc(Oc2cccc3ccccc23)cc1=O (stereo partly drawn) [Example 109, 4-Methyl-2-[4-(naphthalen-1-yloxy)-6-oxo-6H-pyridazin-1-yl]-pentanoic acid [1-((R)-2,3-dihydroxy-propyl)-1H-pyrazol-3-yl]-amide] | 0.293 µM
CC(C)CC(C(=O)Nc1ccn(C[C@@H](O)CO)n1)n1ncc(Oc2cccc3c2CCCC3)cc1=O (stereo partly drawn) [Example 110, 4-Methyl-2-[6-oxo-4-(5,6,7,8-tetrahydro-naphthalen-1-yloxy)-6H-pyridazin-1-yl]-pentanoic acid [1-((R)-2,3-dihydroxy-propyl)-1H-pyrazol-3-yl]-amide] | 0.29 µM
CC(C)CC(C(=O)Nc1ccn(C[C@@H](O)CO)n1)n1ncc(Oc2cccc3[nH]ccc23)cc1=O (stereo partly drawn) [Example 111, 2-[4-(1H-Indol-4-yloxy)-6-oxo-6H-pyridazin-1-yl]-4-methyl-pentanoic acid [1-((R)-2,3-dihydroxy-propyl)-1H-pyrazol-3-yl]-amide] | 0.554 µM
CC(C)CC(C(=O)Nc1ccn(C[C@@H](O)CO)n1)n1ncc(-n2ccc3c(O)cccc32)cc1=O (stereo partly drawn) [Example 112, 2-[4-(4-Hydroxy-indol-1-yl)-6-oxo-6H-pyridazin-1-yl]-4-methyl-pentanoic acid [1-((R)-2,3-dihydroxy-propyl)-1H-pyrazol-3-yl]-amide] | 2.606 µM
CC(C)CC(C(=O)Nc1ccn(C)n1)n1ncc(Oc2cccc3c2ccn3C[C@@H](O)CO)cc1=O (stereo partly drawn) [Example 113, 2-{4-[1-((R)-2,3-Dihydroxy-propyl)-1H-indol-4-yloxy]-6-oxo-6H-pyridazin-1-yl}-4-methyl-pentanoic acid (1-methyl-1H-pyrazol-3-yl)-amide] | 2.308 µM
COc1ccc(Oc2cnn(C(CC3CCCCC3)C(=O)Nc3ccn(CC(C)(C)O)n3)c(=O)c2)c(F)c1 (centres unmarked) [Example 116, 3-Cyclohexyl-2-[4-(2-fluoro-4-methoxy-phenoxy)-6-oxo-6H-pyridazin-1-yl]-N-[1-(2-hydroxy-2-methyl-propyl)-1H-pyrazol-3-yl]-propionamide] | 0.543 µM
Cc1ccc(Oc2cnn(C(CC3CCCCC3)C(=O)Nc3ccn(CC(C)(C)O)n3)c(=O)c2)c(C)c1 (centres unmarked) [Example 117, 3-Cyclohexyl-2-[4-(2,4-dimethyl-phenoxy)-6-oxo-6H-pyridazin-1-yl]-N-[1-(2-hydroxy-2-methyl-propyl)-1H-pyrazol-3-yl]-propionamide] | 0.352 µM
COc1ccc(Oc2cnn(C(CC3CCCCC3)C(=O)Nc3ccn(CC(C)(C)O)n3)c(=O)c2)c(Cl)c1 (centres unmarked) [Example 118, 2-[4-(2-Chloro-4-methoxy-phenoxy)-6-oxo-6H-pyridazin-1-yl]-3-cyclohexyl-N-[1-(2-hydroxy-2-methyl-propyl)-1H-pyrazol-3-yl]-propionamide] | 0.237 µM
